Experimental data from patent US7884124B2, “Fluoro-substituted inhibitors of D-amino acid oxidase” (Sepracor Inc., priority 2006, dated 2011).
Like-named read-outs stand apart in the source and are kept apart here.

Tests used:
Human DAAO = Human DAAO (Homo sapiens, UniProt P14920); assay: D-Amino Acid Oxidase Enzyme Assay (D-serine substrate, horseradish peroxidase/Amplex Red coupled fluorescence); assay type: biochemical
Experimental: This coupled reaction uses the enzyme substrate Amplex Red (Molecular Probes), which is converted to the fluorescent reaction product, resorufin (excitation 530-560 nm; emission ˜590 nm). All reagents were prepared in 50 mM sodium phosphate buffer at pH 7.4 and inhibition curves were generated at this pH.
The final concentrations of components in 200 μl total volume per well (black clear-bottom 96-well plate, Costar) were:
(a) Horseradish peroxidase: 4 Units per ml
(d) Amplex Red reagent: 50 uM
The reactions were initiated by addition of DAAO enzyme while the fluorescence was monitored. […] Inhibition curves were generated in the presence of varying concentrations of the inhibitor and IC50 values were calculated for each inhibitor.

[1] = system: D-Serine Levels in the cerebellum; assay: In vivo elevation of D-serine levels in the cerebellum (LC/MS/MS); conditions: Mus musculus, ip, mice, read-out: Fold increase in D-serine in the cerebellum over vehicle; for response vs control in vivo at 50 mg/kg: 50 mg/kg i.p.; for response vs control in vivo at 10 mg/kg: 10 mg/kg i.p.
Experimental: In another example, the compounds activity is determined by measuring D-serine levels in vivo. Elevation of the D-serine level in a certain brain area (e.g., the cerebellum) of a test animal (e.g., mouse, rat, pig and the like) is indicative of DAAO inhibition in vivo. An exemplary assay format, which measures D-serine levels (LC/MS/MS) in the cerebellum of mice two hours and six hours after intraperitoneal (i.p.) dosing, is described herein (e.g., Example 9). Increases in D-serine levels were determined through comparison with vehicle. Useful variations of this assay will be apparent to those of skill in the art. Compounds of the invention are judged to be sufficiently active in this assay when at least one, preferably at least two, more preferably at least three and most preferably all four of the following criteria are met:
Mice (C57BL/6, 8-9 weeks of age) were dosed intraperitoneally at 10 mL/kg with 50 mg/kg or 10 mg/kg of compound suspended in 45% (w/v) hydroxy-β-cyclodextrin vehicle. Animals were sacrificed at either 2 or 6 hours post compound administration with an N=3 per time point. At sacrifice, trunk blood was collected into tubes containing potassium EDTA, which were then centrifuged to permit isolation of plasma. The cerebellum from each animal was dissected. Plasma and cerebellum samples were stored at −80° C. until samples were analyzed (LC/MS/MS).

[2] = D-serine 5 mM, pH 7.4, read-out: Human DAAO Inhibition (IC50)

Sequence of Human DAAO (P14920 whole entry): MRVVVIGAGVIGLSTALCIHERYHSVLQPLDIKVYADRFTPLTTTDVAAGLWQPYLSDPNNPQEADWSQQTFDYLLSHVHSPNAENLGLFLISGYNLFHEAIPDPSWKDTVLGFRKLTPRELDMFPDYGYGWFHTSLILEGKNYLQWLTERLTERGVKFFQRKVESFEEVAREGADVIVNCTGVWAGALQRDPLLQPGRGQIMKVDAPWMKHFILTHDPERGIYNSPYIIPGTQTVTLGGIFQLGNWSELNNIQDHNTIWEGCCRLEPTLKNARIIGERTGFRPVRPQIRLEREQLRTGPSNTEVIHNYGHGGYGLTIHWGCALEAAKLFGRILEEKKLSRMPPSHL

IC50 (Human DAAO; [2]) | inhibition at 100 µM (Human DAAO) | Structure (SMILES) | response vs control in vivo at 50 mg/kg ([1]; 2 h) | response vs control in vivo at 50 mg/kg ([1]; 6 h) | response vs control in vivo at 10 mg/kg ([1]; 2 h) | response vs control in vivo at 10 mg/kg ([1]; 6 h) | IC50 (Human DAAO)
< 100000 nM | – | O=C(O)c1cc2sc(Cl)cc2[nH]1 [Compound 4, 2-chloro-4H-thieno[3,2-b]pyrrole-5-carboxylic acid] | < 150% | < 150% | – | – | –
< 1000 nM | – | O=C(O)c1cc2sc(Br)cc2[nH]1 [Compound 5, 2-bromo-4H-thieno[3,2-b]pyrrole-5-carboxylic acid] | 150 to 200% | < 150% | < 150% | < 150% | –
< 100 nM | – | O=C(O)c1cc2scc(Br)c2[nH]1 [Compound 49, 3-bromo-4H-thieno[3,2-b]pyrrole-5-carboxylic acid] | < 150% | < 150% | – | – | –
< 25 nM | – | O=C(O)c1cc2sc(F)cc2[nH]1 [Compound 55, 2-fluoro-4H-thieno[3,2-b]pyrrole-5-carboxylic acid] | > 200% | 150 to 200% | < 150% | < 150% | –
< 25 nM | – | O=C(O)c1cc2scc(F)c2[nH]1 [Compound 56, 3-fluoro-4H-thieno[3,2-b]pyrrole-5-carboxylic acid] | – | – | 150 to 200% | < 150% | –
< 100000 nM | – | O=C(O)c1cc2cc(Br)sc2[nH]1 [Compound 65, 2-bromo-6H-thieno[2,3-b]pyrrole-5-carboxylic acid] | – | – | – | – | –
< 25 nM | – | O=C(O)c1cc2cc(F)sc2[nH]1 [Compound 66, 2-fluoro-6H-thieno[2,3-b]pyrrole-5-carboxylic acid] | > 200% | 150 to 200% | 150 to 200% | < 150% | –
< 25 nM | – | O=C(O)c1cc2scc(Cl)c2[nH]1 [Compound 67, 3-chloro-4H-thieno[3,2-b]pyrrole-5-carboxylic acid] | < 150% | < 150% | < 150% | < 150% | –
< 25 nM | – | O=C(O)c1cc2c(F)csc2[nH]1 [Compound 68, 3-fluoro-6H-thieno[2,3-b]pyrrole-5-carboxylic acid] | 150 to 200% | 150 to 200% | < 150% | < 150% | –
< 100000 nM | – | O=C(O)c1cc2oc(Br)cc2[nH]1 [Compound 73, 2-bromo-4H-furo[3,2-b]pyrrole-5-carboxylic acid] | – | – | – | – | –
< 25 nM | – | O=C(O)c1cc2oc(F)cc2[nH]1 [Compound 78, 2-fluoro-4H-furo[3,2-b]pyrrole-5-carboxylic acid] | – | – | – | – | –
< 100000 nM | – | O=C(O)c1cc2cc(Cl)sc2[nH]1 [Compound 80, 2-chloro-6H-thieno[2,3-b]pyrrole-5-carboxylic acid] | – | – | – | – | –

More lines, now with the values behind:

Structure (SMILES) | IC50 (Human DAAO; [2]) | inhibition at 100 µM (Human DAAO) | response vs control in vivo at 50 mg/kg ([1]; 2 h) | response vs control in vivo at 50 mg/kg ([1]; 6 h) | response vs control in vivo at 10 mg/kg ([1]; 2 h) | response vs control in vivo at 10 mg/kg ([1]; 6 h) | IC50 (Human DAAO)
O=C(O)c1cc2sc(Br)c(Br)c2[nH]1 [Compound 6, 2,3-dibromo-4H-thieno[3,2-b]pyrrole-5-carboxylic acid] | < 100000 nM | – | – | – | – | – | –
O=C(O)c1cc2c(Br)csc2[nH]1 [Compound 8, 3-bromo-6H-thieno[2,3-b]pyrrole-5-carboxylic acid] | < 1000 nM | – | 150 to 200% | 150 to 200% | < 150% | < 150% | –
O=C(O)c1cc2oc(Cl)cc2[nH]1 [Compound 23, 2-chloro-4H-furo[3,2-b]pyrrole-5-carboxylic acid] | < 100000 nM | – | – | – | – | – | –
O=C(O)c1cc2occ(Br)c2[nH]1 [Compound 30, 3-bromo-4H-furo[3,2-b]pyrrole-5-carboxylic acid] | < 100 nM | – | 150 to 200% | < 150% | < 150% | < 150% | –
O=C(O)c1[nH]c2ccsc2c1F [Compound 54, 6-fluoro-4H-thieno[3,2-b]pyrrole-5-carboxylic acid] | < 25 nM | – | – | – | > 200% | > 200% | –
O=C(O)c1[nH]c2sccc2c1Br [Compound 64, 4-bromo-6H-thieno[2,3-b]pyrrole-5-carboxylic acid] | < 1000 nM | – | < 150% | < 150% | < 150% | < 150% | –
O=C(O)c1[nH]c2sccc2c1Cl [Compound 69, 4-chloro-6H-thieno[2,3-b]pyrrole-5-carboxylic acid] | < 100 nM | – | – | – | – | – | –
O=C(O)c1[nH]c2ccsc2c1Cl [Compound 70, 6-chloro-4H-thieno[3,2-b]pyrrole-5-carboxylic acid] | < 100 nM | – | – | – | < 150% | < 150% | –
O=C(O)c1[nH]c2ccsc2c1Br [Compound 71, 6-bromo-4H-thieno[3,2-b]pyrrole-5-carboxylic acid] | < 1000 nM | – | – | – | < 150% | < 150% | –
O=C(O)c1[nH]c2ccoc2c1Br [Compound 72, 6-bromo-4H-furo[3,2-b]pyrrole-5-carboxylic acid] | < 1000 nM | – | < 150% | < 150% | < 150% | < 150% | –
O=C(O)c1cc2occ(F)c2[nH]1 [Compound 74, 3-fluoro-4H-furo[3,2-b]pyrrole-5-carboxylic acid] | < 25 nM | – | > 200% | > 200% | > 200% | 150 to 200% | –
O=C(O)c1[nH]c2ccoc2c1F [Compound 75, 6-fluoro-4H-furo[3,2-b]pyrrole-5-carboxylic acid] | < 25 nM | – | > 200% | > 200% | > 200% | 150 to 200% | –
O=C(O)c1cc2occ(Cl)c2[nH]1 [Compound 76, 3-chloro-4H-furo[3,2-b]pyrrole-5-carboxylic acid] | – | – | – | – | < 150% | < 150% | < 100 nM
O=C(O)c1[nH]c2ccoc2c1Cl [Compound 79, 6-chloro-4H-furo[3,2-b]pyrrole-5-carboxylic acid] | < 100 nM | – | – | – | – | – | –
O=C(O)c1cc2c(Cl)csc2[nH]1 [Compound 81, 3-chloro-6H-thieno[2,3-b]pyrrole-5-carboxylic acid] | < 100 nM | – | – | – | – | – | –
O=C(O)c1[nH]c2sccc2c1F [Compound 82, 4-fluoro-6H-thieno[2,3-b]pyrrole-5-carboxylic acid] | < 100 nM | – | – | – | – | – | –
O=C(O)c1[nH]c2sc(Br)cc2c1Br [Compound 84, 2,4-dibromo-6H-thieno[2,3-b]pyrrole-5-carboxylic acid] | – | 33% | – | – | – | – | –
